# Patent publication US8207346B2, “Methods of synthesizing anatabine” (Rock Creek Pharmaceuticals, Inc., priority 2010, dated 2012)
# Columns and labels:
# monoamine oxidase (MAO) = conditions: known from Williams et al. U.S. Pat. No. 6,929,811; cited from earlier work
# [1] = Stability analysis of anatabine base with and without BHT as a preservative; type: physicochemical
# Procedure: See, for example, Tables 3 and 4 in Examples 4 and 5, respectively. Purity of the anatabine may be retained for extended periods of time. […] Further, anatabine remains stable when stored at a variety of temperatures. For example, the anatabine retains the indicated purity when stored at −20° C. to −10° C., −20° C. to 0° C., −10° C. to 0° C., 0° C. to 4° C., 2° C. to 8° C., 5° C. to 10° C., 10° C. to 15° C., 15° C. to 25° C., or 25° C. to 28° C. Stability is determined by any suitable art-recognized method. For example, anatabine stability may be monitored by high performance liquid chromatography (HPLC), liquid chromatography-mass spectroscopy (LC-MS), or nuclear magnetic resonance (NMR).
# Anatabine base stability was analyzed with and without BHT (3,5-di-tert-butyl-4-hydroxytoluene). The initial purity of BHT-free anatabine base was 94.95%. The initial purity of anatabine base with BHT was 94.87%.
structure (smiles),measurement,setting,value
"C1=CCC(c2cccnc2)NC1 (stereo not shown) [anatabine base without BHT, Anatabine]",Inhibition of monoamine oxidase (MAO),monoamine oxidase (MAO),inhibit monoamine oxidase (MAO)
same,Purity (%),"[1]; day 1, storage temperature 2-8° C.",94.44%
same,Purity (%),"[1]; day 1, storage temperature 25-28° C.",89.63%
same,Purity (%),"[1]; day 1, storage temperature −20° C.",93.90%
same,Purity (%),"[1]; day 2, storage temperature 2-8° C.",94.05%
same,Purity (%),"[1]; day 2, storage temperature 25-28° C.",87.59%
same,Purity (%),"[1]; day 2, storage temperature −20° C.",94.62%
same,Purity (%),"[1]; day 3, storage temperature 2-8° C.",91.65%
same,Purity (%),"[1]; day 3, storage temperature 25-28° C.",80.74%
same,Purity (%),"[1]; day 3, storage temperature −20° C.",93.87%
same,Purity (%),"[1]; day 12, storage temperature 2-8° C.",90.12%
same,Purity (%),"[1]; day 12, storage temperature 25-28° C.",79.59%
same,Purity (%),"[1]; day 12, storage temperature −20° C.",94.01%
